Laboratory results reported in patent publication US20030022889A1, “Method for providing neuro-protective effects” (priority 1997, published 2003).

Experiments:
5-HT1C receptor = target: T1, 5-HT1C receptor (Homo sapiens, UniProt P28335); test: pharmacological studies, 5-HT1C receptor activity
T1 sequence (P28335 33-458): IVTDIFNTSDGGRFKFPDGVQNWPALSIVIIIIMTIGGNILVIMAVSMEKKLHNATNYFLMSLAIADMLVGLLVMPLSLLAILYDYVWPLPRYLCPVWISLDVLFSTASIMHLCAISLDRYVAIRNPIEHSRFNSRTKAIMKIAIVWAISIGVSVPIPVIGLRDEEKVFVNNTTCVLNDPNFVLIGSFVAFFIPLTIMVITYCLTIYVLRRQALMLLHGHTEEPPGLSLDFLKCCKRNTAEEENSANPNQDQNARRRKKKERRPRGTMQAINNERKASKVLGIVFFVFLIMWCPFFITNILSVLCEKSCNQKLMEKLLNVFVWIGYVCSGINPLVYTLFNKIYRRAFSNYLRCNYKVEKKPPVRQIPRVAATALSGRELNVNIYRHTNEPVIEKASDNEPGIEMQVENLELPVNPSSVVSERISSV

[1] = system: muscarinic cholinergic receptor; test: pharmacological studies, muscarinic cholinergic receptor activity
[2] = system: ischemia-induced neuronal cell damage (CA1 pyramidal cell layer of the hippocampus); test: Cerebral Ischemia Model in Rats; type: in vivo, Male Wistar rats; settings: "such experiments"; the sentence does not name a specific test
Text: Cerebral ischemia is produced in rats by occluding the four arteries that supply blood to the brain according to the following procedure. Male Wistar rats are anesthetized with Metofane and placed into a stereotaxic instrument. A longitudinal incision is made on the dorsal surface of the neck. The neck muscles are reflected to expose the dorsal surface of the spinal column. The two vertebral arteries are exposed where they pass through the first cervical vertebra. Both arteries are permanently occluded by the application of electrocautery. After coagulation of the vertebral arteries, the rat is removed from the stereotaxic instrument and the surgical wound is sutured. Two longitudinal incisions are then made on the ventral surface of the neck. The two common carotid arteries are exposed and dissected free from surrounding nerves and connective tissue. An atraumatic clasp, fabricated mainly from silicone rubber tubing, is placed around each carotid artery in a manner such that the vessel is not traumatized or occluded. An indwelling jugular cannula is implanted into each rat for drug delivery. The surgical wounds are then closed. […]
Damage in 4 sections of the dorsal hippocampus from each brain is assessed in order to obtain an accurate estimate of damage. An average damage score is calculated for each treatment group. […] The level of significance is determined using the Mann Whitney-U-test.

[3] = system: formation of lipid peroxides; test: Lipid Peroxidation Test; settings: test protocol of Aruoma, et al. (1990)

In the case of Cc1cc2c(s1)Nc1ccccc1N=C2N1CCN(C)CC1 [olanzapine, 2-methyl-4-(4-methyl-1-piperazinyl)-10H-thieno[2,3-b] [1,5] benzodiazepine], the “activity at the 5-HT1C receptor” value (5-HT1C receptor) is reported as “active”, the “muscarinic cholinergic receptor activity” value [1] is reported as “has muscarinic cholinergic receptor activity” and the neuro-protective effect [2] is reported as “significant neuro-protective effect”. For the same compound, the “inhibition of the formation of lipid peroxides” value [3] was “inhibit the formation of lipid peroxides”.
